{"source": "paper PMC11054303", "about": "“Design and Synthesis of Novel N-Benzylidene Derivatives of 3-Amino-4-imino-3,5-dihydro-4H-chromeno[2,3-d]pyrimidine under Microwave, In Silico ADME Predictions, In Vitro Antitumoral Activities and In Vivo Toxicity” (Pharmaceuticals, 2024)", "key": {"MCF7": {"system": "MCF7", "test": "Antiproliferative assay, MCF7", "assay_type": "cell-based, human", "procedure": "(§1) The potential antiproliferative activity of these novel 3-(N-phenylmethyliden)amino-4-imino-3,5-dihydro-4H-chromeno[2,3-d]pyrimidine 10(a-i) and 10-(N-phenylmethyliden)amino-11-imino-11H-naphto[1′,2′:5,6]pyrano[2,3-d]pyrimidine 10(j-l) was evaluated in a panel of eight tumoral cell lines and in diploid skin fibroblasts used as normal cell lines for control. For these antitumor assays, chosen cell lines represent diverse types of human cancer, which are, respectively, human hepatocellular carcinoma (Huh7 D12), human colon adenocarcinoma (Caco2), human breast adenocarcinoma (MDA-MB231), MDA-MB468 for human breast carcinoma which correspond to the Triple Negative Breast Cancer (TNBC), human colon carcinoma (HCT116), PC3 as cell line initiated from bone metastasis of grade IV prostatic adenocarcinoma from a person, MCF7 as breast cancer line isolated from a person and PANC1, as human pancreatic cancer cell line. The potential antiproliferative activity was preliminarily evaluated in vitro at a 25 μM single dose.\n(§2) The IC50 was calculated from the full dose-response curve and used as a parameter for the antiproliferative activity of the new compounds.\n(§3) Skin diploid fibroblastic cells were provided by BIOPREDIC International Company (Rennes, France). Huh-7D12 (Ref ECACC: 01042712), Caco2 (Ref ECACC: 86010202), MDA-MB-231 (Ref ECACC: 92020424), MDA-MB-468, HCT-116 (Ref ECACC: 91091005), PC3 (Ref ECACC: 90112714), and MCF7 cell lines were obtained from the ECACC collection. PANC1 cell lines, a generous gift of LBAI Inserm 1227 (Brest, France). Cells were grown according to ECACC recommendations in DMEM for Huh-D12, MDA-MB-231, MDA-MB-468 and fibroblast, in EMEM for Caco2, in McCoy’s for HCT-116 and RPMI for PC3 at 37 °C and 5% CO2. All culture media with 10% of FBS, 1% of penicillin-streptomycin and 2 mM glutamine.\n(§4) Chemicals were solubilized in DMSO at a concentration of 10 mM (stock solution) and diluted in a culture medium to the desired final concentrations. […] The toxicity test of the chemicals on these cells was as follows: 2 × 10^3 cells for HCT-116 cells or 4 × 10^3 for the other cells were seeded in 96-multi-well plates in triplicate and left for 24 h for attachment, spreading and growing. Then, cells were exposed for 48 h to increasing concentrations of chemicals, ranging from 0.1 μM to 25 μM, in a final volume of 120 μL of culture medium. After 48 h of treatment, cells were washed in PBS and fixed in a cooled 90% ethanol/5% acetic acid solution for 20 min. The nuclei were stained with Hoechst 3342 (B2261 Merck Sigma-Aldrich) and counted. Image acquisition and analysis were performed using automated imaging analysis with a Cellomics Arrayscan VTI/HCS Reader (Thermo/Scientific, Waltham, MA, USA). The survival percentages were calculated as the percentage of cell number after chemical treatment over cell number after DMSO treatment. The IC50 was graphically determined."}, "MDA MB231": {"system": "MDA MB231", "test": "Antiproliferative assay, MDA MB231", "assay_type": "cell-based, human", "procedure": "as §1, §2, §3, §4"}, "Huh7 D12": {"system": "Huh7 D12", "test": "Antiproliferative assay, Huh7 D12", "assay_type": "cell-based, human", "procedure": "as §1, §2, §3, §4"}, "MDA MB468": {"system": "MDA MB468", "test": "Antiproliferative assay, MDA MB468", "assay_type": "cell-based, human", "procedure": "as §1, §2, §3, §4"}, "Fibroblasts": {"system": "Fibroblasts", "test": "Antiproliferative assay, diploid skin fibroblasts (normal cells)", "assay_type": "cell-based", "settings": "Fibroblast; 48 h incubation; average of three assays, standard error ± 0.5 μM", "procedure": "as §1, §2, §3, §4"}, "[1]": {"system": "zebrafish Danio rerio embryos", "test": "Angiogenesis of vessels in mCherry transgenic zebrafish embryos", "assay_type": "in vivo", "source_text": "Another interest of zebrafish Danio rerio is the possibility to deeply evaluate the effects of angiogenic compounds. In our model, the formation of most vessels is complete, the circulation is present, and the heart is beating after 28 hpf of development. Angiogenesis begins in the somites and in the anterior portion of the embryos. Many zebrafish blood vessels form by angiogenic sprouting and appear to require the same proteins required for blood vessel growth in mammals. By using the mCherry line transgenic zebrafish, it is possible to analyze the direct effect of a compound on the angiogenesis of dorsal vessels. Zebrafish embryos can survive up to a week without an intact circulatory system because defective vessel formation has no immediate lethal effect.\nThese experiments were performed in four technical replicates."}}, "note": "Entries after “also recorded” stand apart in the source; their conditions may differ.", "data": [{"smiles": "COc1cccc2c1Oc1ncn(/N=C/c3ccccc3O)c(=N)c1C2", "note": "[10h, (3E) 3-N-(2-Hydroxyphenylmethylidene)amino-4-imino-9-methoxy-3,5-dihydro-4H-chromeno[2,3-d]pyrimidine]", "values": [{"measurement": "IC50", "setting": "MCF7; Homo sapiens, MCF7, 48 h incubation, average of three assays, standard error ± 0.5 μM", "result": 270, "unit": "nM"}, {"measurement": "Selectivity Index (SI) MCF7", "setting": "MCF7; SI = IC50 fibroblasts/IC50 on MCF7", "result": "> 92.6"}, {"measurement": "IC50", "setting": "MDA MB231; Homo sapiens, MDA-MB-231, 48 h incubation, average of three assays, standard error ± 0.5 μM", "result": 300, "unit": "nM"}, {"measurement": "Selectivity Index (SI) MDA MB231", "setting": "MDA MB231; SI = IC50 fibroblasts/IC50 on MDA MB231", "result": "> 83.3"}, {"measurement": "IC50", "setting": "Huh7 D12; Homo sapiens, Huh-7D12, 48 h incubation, average of three assays, standard error ± 0.5 μM", "result": 230, "unit": "nM"}, {"measurement": "Selectivity Index (SI) Huh7 D12", "setting": "Huh7 D12; SI = IC50 fibroblasts/IC50 on Huh7 D12", "result": "> 108.7"}, {"measurement": "IC50", "setting": "MDA MB468; Homo sapiens, MDA-MB-468, 48 h incubation, average of three assays, standard error ± 0.5 μM", "result": 240, "unit": "nM"}, {"measurement": "Selectivity Index (SI) MDA MB468", "setting": "MDA MB468; SI = IC50 fibroblasts/IC50 on MDA MB468", "result": "> 104.2"}, {"measurement": "IC50", "setting": "Fibroblasts", "result": "> 25000", "unit": "nM"}, {"measurement": "effect on vessel angiogenesis", "setting": "[1]; 5 μM dose at 72 hpf", "result": "no angiogenic effect; also recorded: cannot observe an anti-angiogenic effect; also recorded: without delay in vessel angiogenesis"}, {"measurement": "effect on vessel angiogenesis", "setting": "[1]; 48 and 72 hpf treatment, up to 5 μM", "result": "without delay in vessel angiogenesis"}]}]}
